# Test results from patent US20230057984A1, “NORMALIZATION OF CULTURE OF CORNEAL ENDOTHELIAL CELLS” (KYOTO PREFECTURAL PUBLIC UNIVERSITY CORPORATION, priority 2011, published 2023).
# Experiments:
# HCEC = test: Consecutive treatments of cultured HCEC over several passages, observation of harmful effects; conditions: even after several passages
# [1] = system: Cynomolgus monkey corneal endothelial cells; test: Culture of monkey corneal endothelial cells with SB431542, cell form by phase-contrast microscope (Example 2); format: cell-based; conditions: primate CEC primary culture, base culture medium with 1 μmol/l SB431542; control showed fibroblast phenotype
# Procedure: • Cynomolgus monkey corneal endothelial cells (MCEC; source of supply and culturing method): the MCECs were cultured by the improved-type protocol described previously [Koizumi N, et al. (2007) Invest Ophthalmol Vis Sci 48: 4519-4526], [Li W, et al. (2007) Invest Ophthalmol Vis Sci 48: 614-620]. Briefly speaking, eyeballs of cynomolgus monkeys, which were humanely killed for another purpose, were purchased (Nissei Bilis Co., Ltd., Ohtsu, Japan and Keari Co., Ltd., Wakayama, Japan) (the method is described above). The Descemet's membrane including corneal endothelial cells were exfoliated, and the corneal endothelial cells were mechanically exfoliated together with basement membranes, followed by treatment using dispase or collagenase (ROCHE catalog number: 10 103 586 001) and then primary culture. Typically, treatment was performed using 1 mg/mL collagenase A (Roche Applied Science, Penzberg, Germany) at 37° C. for 2 hours. For the culture medium, DMEM (INVITROGEN catalog number 12320) was used with 10% FBS (BIOWEST, catalog number: S1820-500) and 2 ng/ml basic FGF (INVITROGEN, catalog number: 13256-029) added thereto. […] In addition, after the cells were fixed, immunostaining was performed using ZO-1, Na^+/K^+-ATPase as a function-associated marker, followed by observation through a fluorescence microscope. […]
structure (smiles),measurement,setting,value
NC(=O)c1ccc(-c2nc(-c3ccc4c(c3)OCO4)c(-c3ccccn3)[nH]2)cc1 [SB431542],harmful effects with regard to the forms or functions,HCEC,"not seen any clear, harmful effects"
same,cell form in phase difference images,[1],a true shape of a polygonal cell and a single layer of a contact inhibition type
